{
  "source": "paper PMC9505425",
  "about": "“Targeting of the Mitochondrial TET1 Protein by Pyrrolo[3,2-b]pyrrole Chelators” (International Journal of Molecular Sciences, 2022)",
  "key": {"Caov-3 cells": {"test_system": "Caov-3 cells", "assay": "MTT cytotoxicity assay, Caov-3", "assay_type": "cell-based, human", "procedure": "(§1) The effects of the tested compounds 1–6 on HF-P4, U-118 MG, H1299, BT-20, and Caov-3 cell lines were evaluated by the MTT assay during 48 h treatment (Table 2 and Tables S2–S31). In all tested compounds, we recognized a difference in cytotoxicity between healthy cells (HF-P4) and cancer cell lines (BT-20, Caov-3, and H-1299). […] In the case of ovarian cancer, the authors discovered oncogenic and poor prognosis roles of TET1 in epithelial ovarian carcinoma (EOC). TET1 is believed to demethylate the epigenome and activate numerous oncogenic pathways in EOC. The aforementioned study presents a new mechanism where TET1 contributes to tumor development through collaboration with CK2α [21]. The overexpression of the TET1 protein was also found in triple negative breast cancer and was associated with an activation of PI3K/mTOR pathway and decreased overall survival.\nThe human ovary adenocarcinoma cell line (Caov-3), purchased from ATCC (Caov-3 (ATCC® HTB-75™), Manassas, VA, USA), was used for the cytotoxicity assay (MTT). Caov-3 cells were cultivated under standard conditions in Dulbecco’s modified Eagle’s medium (ATCC, Manassas, VA, USA) supplemented with 10% FBS and streptomycin (100 μg/mL) at 37 °C at a 5% CO2 atmosphere.\n(§2) For the cytotoxicity assay, we used the following cell lines: human glioblastoma cell line U118-MG, human mammary gland/breast cell line BT-20, human ovary adenocarcinoma cell line Caov-3, and non-small-cell lung carcinoma H-1299. As previously mentioned, these cell lines contain a high level of the TET1 protein, which corresponds to a lower overall survival. In addition to these cell cultures, we used the human dermal fibroblast cell line HF-P4 as a healthy control. Determination of cytotoxicity was performed using the MTT [3-(4,5-dimethylthiazol-2-yl)-2,5-diphenyltetrazolium bromide] colorimetric assay. Viable cells from each cell line were cultured in 96-well plates (VWR, Stříbrná Skalice, Czech Republic) at a density of 1.0 × 10^5 cells per well and allowed to grow for 24 h in 200 μL of recommended medium. After a 1-day incubation, the medium was replaced with solutions of compounds 1–6 at concentration ranges of 0.1–20 μM. Each concentration was measured four times within one test, and the entire test was repeated three times. Tested compounds 1–6 were dissolved in DMSO and then diluted with corresponding medium to a final volume of 200 μL (maximum 1% DMSO). After 48 h exposure, cells were treated with 175 μL of MTT solution (P-LAB, Prague, Czech Republic) for 2 h. In the next step, MTT solution was removed, and 125 μL of DMSO (Penta, Prague, Czech Republic) was added to solubilize dark crystals of formazan formed in intact cells, and absorbance was measured at 570 nm by the enzyme-linked immunoabsorbent assay reader Infinite® 200 PRO (Tecan, Männedorf, Switzerland). The final DMSO concentration was smaller than 1% (v/v). The absorbance of untreated cells was considered 100%, and IC50 values were calculated by the GraphPad Prism 8 software. As a parameter for cytotoxicity, we used a concentration that inhibits 50% of cell growth (IC50)."}, "BT-20 cells": {"test_system": "BT-20 cells", "assay": "MTT cytotoxicity assay, BT-20", "assay_type": "cell-based, human", "procedure": "as §1\nThe human mammary gland/breast cell line (BT-20), purchased from ATCC (BT-20 (ATCC® HTB-19™), Manassas, VA, USA), was used for the cytotoxicity assay (MTT), and BT-20 cells were cultivated under standard conditions in Eagle’s minimum essential medium (ATCC, Manassas, VA, USA) supplemented with 10% FBS and streptomycin (100 μg/mL) at 37 °C at a 5% CO2 atmosphere.\nas §2"}},
  "note": "Where “and” joins values, the source holds several entries; their conditions need not be identical. Equal values may be shown once.",
  "data": [
    {"smiles": "Cc1ccc(-n2c(-c3ccc(C(=O)NN)cc3)cc3c2cc(-c2ccc(C(=O)NN)cc2)n3-c2ccc(C)cc2)cc1", "note": "[Compound 1]", "values": [
      {"measurement": "Cell viability %", "setting": "Caov-3 cells; Caov-3, 100 nM, 48 h, repeats, 0.1 µM", "result": "80.61% and 94.8%"},
      {"measurement": "Cell viability %", "setting": "Caov-3 cells; Caov-3, 500 nM, 48 h, repeats, 0.5 µM", "result": "91.36% and 100.9421% and 76.35%"},
      {"measurement": "Cell viability %", "setting": "Caov-3 cells; Caov-3, 750 nM, 48 h, repeats, 0.75 µM", "result": "95.41% and 77.67%"},
      {"measurement": "Cell viability %", "setting": "Caov-3 cells; Caov-3, 1 uM, 48 h, repeats, 1 µM", "result": "71.07% and 89.66%"},
      {"measurement": "Cell viability %", "setting": "Caov-3 cells; Caov-3, 2.5 uM, 48 h, repeats, 2.5 µM", "result": "71.79% and 55.75%"},
      {"measurement": "Cell viability %", "setting": "Caov-3 cells; Caov-3, 5 uM, 48 h, repeats, 5 µM", "result": "48.77% and 58.08%"},
      {"measurement": "Cell viability %", "setting": "Caov-3 cells; Caov-3, 7.5 uM, 48 h, repeats, 7.5 µM", "result": "51.68% and 65.52%"},
      {"measurement": "Cell viability %", "setting": "Caov-3 cells; Caov-3, 10 uM, 48 h, repeats, 10 µM", "result": "53.56% and 43.67%"},
      {"measurement": "Cell viability %", "setting": "Caov-3 cells; Caov-3, 15 uM, 48 h, repeats, 15 µM", "result": "35.1% and 41.9%"},
      {"measurement": "Cell viability %", "setting": "Caov-3 cells; Caov-3, 20 uM, 48 h, repeats, 20 µM", "result": "35.73% and 39.69%"},
      {"measurement": "viability at 0.1 µM", "setting": "Caov-3 cells; Homo sapiens, Caov-3, 48 h, Caov-3, 100 nM, repeats, read-out: Cell viability %", "result": 97.9, "unit": "%"},
      {"measurement": "viability at 0.75 µM", "setting": "Caov-3 cells; Homo sapiens, Caov-3, 48 h, Caov-3, 750 nM, repeats, read-out: Cell viability %", "result": 78.5, "unit": "%"},
      {"measurement": "viability at 1 µM", "setting": "Caov-3 cells; Homo sapiens, Caov-3, 48 h, Caov-3, 1 uM, repeats, read-out: Cell viability %", "result": 81.2, "unit": "%"},
      {"measurement": "viability at 2.5 µM", "setting": "Caov-3 cells; Homo sapiens, Caov-3, 48 h, Caov-3, 2.5 uM, repeats, read-out: Cell viability %", "result": 55.9, "unit": "%"},
      {"measurement": "viability at 5 µM", "setting": "Caov-3 cells; Homo sapiens, Caov-3, 48 h, Caov-3, 5 uM, repeats, read-out: Cell viability %", "result": 50.9, "unit": "%"},
      {"measurement": "viability at 7.5 µM", "setting": "Caov-3 cells; Homo sapiens, Caov-3, 48 h, Caov-3, 7.5 uM, repeats, read-out: Cell viability %", "result": 56.4, "unit": "%"},
      {"measurement": "viability at 10 µM", "setting": "Caov-3 cells; Homo sapiens, Caov-3, 48 h, Caov-3, 10 uM, repeats, read-out: Cell viability %", "result": 45.1, "unit": "%"},
      {"measurement": "viability at 15 µM", "setting": "Caov-3 cells; Homo sapiens, Caov-3, 48 h, Caov-3, 15 uM, repeats, read-out: Cell viability %", "result": 45.9, "unit": "%"},
      {"measurement": "viability at 20 µM", "setting": "Caov-3 cells; Homo sapiens, Caov-3, 48 h, Caov-3, 20 uM, repeats, read-out: Cell viability %", "result": 28.5, "unit": "%"},
      {"measurement": "IC50", "setting": "Caov-3 cells; Homo sapiens, Caov-3, MTT, 48 h", "result": 6.48, "unit": "µM"},
      {"measurement": "melting point", "result": "312 to 313", "unit": "°C"},
      {"measurement": "Cell viability %", "setting": "BT-20 cells; BT-20, 100 nM, 48 h, repeats, 0.1 µM", "result": "100.0252% and 99.53%"},
      {"measurement": "Cell viability %", "setting": "BT-20 cells; BT-20, 500 nM, 48 h, repeats, 0.5 µM", "result": "106.1555% and 91.85%"},
      {"measurement": "Cell viability %", "setting": "BT-20 cells; BT-20, 750 nM, 48 h, repeats, 0.75 µM", "result": "98.6% and 95.52%"},
      {"measurement": "Cell viability %", "setting": "BT-20 cells; BT-20, 1 uM, 48 h, repeats, 1 µM", "result": "98.92% and 100.049%"},
      {"measurement": "Cell viability %", "setting": "BT-20 cells; BT-20, 2.5 uM, 48 h, repeats, 2.5 µM", "result": "55.65% and 54.6523%"},
      {"measurement": "Cell viability %", "setting": "BT-20 cells; BT-20, 5 uM, 48 h, repeats, 5 µM", "result": "56.31% and 56.39%"},
      {"measurement": "Cell viability %", "setting": "BT-20 cells; BT-20, 7.5 uM, 48 h, repeats, 7.5 µM", "result": "50.1262% and 42.238%"},
      {"measurement": "Cell viability %", "setting": "BT-20 cells; BT-20, 10 uM, 48 h, repeats, 10 µM", "result": "44.0939% and 37.78%"},
      {"measurement": "Cell viability %", "setting": "BT-20 cells; BT-20, 15 uM, 48 h, repeats, 15 µM", "result": "32.99% and 30.02%"},
      {"measurement": "Cell viability %", "setting": "BT-20 cells; BT-20, 20 uM, 48 h, repeats, 20 µM", "result": "18.85% and 15.23%"},
      {"measurement": "viability at 0.1 µM", "setting": "BT-20 cells; Homo sapiens, BT-20, 48 h, BT-20, 100 nM, repeats, read-out: Cell viability %", "result": 102, "unit": "%"},
      {"measurement": "viability at 0.5 µM", "setting": "BT-20 cells; Homo sapiens, BT-20, 48 h, BT-20, 500 nM, repeats, read-out: Cell viability %", "result": 87.8, "unit": "%"},
      {"measurement": "viability at 0.75 µM", "setting": "BT-20 cells; Homo sapiens, BT-20, 48 h, BT-20, 750 nM, repeats, read-out: Cell viability %", "result": 91.2, "unit": "%"},
      {"measurement": "viability at 1 µM", "setting": "BT-20 cells; Homo sapiens, BT-20, 48 h, BT-20, 1 uM, repeats, read-out: Cell viability %", "result": 103, "unit": "%"},
      {"measurement": "viability at 2.5 µM", "setting": "BT-20 cells; Homo sapiens, BT-20, 48 h, BT-20, 2.5 uM, repeats, read-out: Cell viability %", "result": 69.2, "unit": "%"},
      {"measurement": "viability at 5 µM", "setting": "BT-20 cells; Homo sapiens, BT-20, 48 h, BT-20, 5 uM, repeats, read-out: Cell viability %", "result": 56.8, "unit": "%"},
      {"measurement": "viability at 7.5 µM", "setting": "BT-20 cells; Homo sapiens, BT-20, 48 h, BT-20, 7.5 uM, repeats, read-out: Cell viability %", "result": 41.2, "unit": "%"},
      {"measurement": "viability at 10 µM", "setting": "BT-20 cells; Homo sapiens, BT-20, 48 h, BT-20, 10 uM, repeats, read-out: Cell viability %", "result": 41.5, "unit": "%"},
      {"measurement": "viability at 15 µM", "setting": "BT-20 cells; Homo sapiens, BT-20, 48 h, BT-20, 15 uM, repeats, read-out: Cell viability %", "result": 33.5, "unit": "%"},
      {"measurement": "viability at 20 µM", "setting": "BT-20 cells; Homo sapiens, BT-20, 48 h, BT-20, 20 uM, repeats, read-out: Cell viability %", "result": 19.8, "unit": "%"},
      {"measurement": "IC50", "setting": "BT-20 cells; Homo sapiens, BT-20, MTT, 48 h", "result": 5.94, "unit": "µM"}
    ]}
  ]
}
